Columns and labels:
[1] = compound: CCCCOc1c(C(=O)c2c(F)cc(C)cc2F)c[nH]c2nncc1-2
[2] = compound: CCNC(=O)c1noc(-c2cc(C(C)C)c(O)cc2O)c1-c1ccc(CN2CCOCC2)cc1 [Luminespib/NVP-AUY922]
[3] = compound: CN(C)C/C=C/C(=O)NC1=CC=C(C=C1)C(=O)NC2=CC=CC(=C2)NC3=NC=NC(=C3)C4=CNC5=CC=CC=C54 [THZ-P1-2]
[4] = compound: CN(C)C/C=C/C(=O)Nc1ccc(O[C@@H]2CCC[C@@H](Nc3ncc(Cl)c(-c4c[nH]c5ccccc45)n3)C2)cc1 [BSJ-01-175]
[5] = compound: CN1CCN(CCOc2cc(OC3CCOCC3)c3c(Nc4c(Cl)ccc5c4OCO5)ncnc3c2)CC1 [Saracatinib/AZD0530]
[6] = compound: Cc1cc(Nc2ncc(Cl)c(Nc3ccccc3S(=O)(=O)C(C)C)n2)c(OC(C)C)cc1C1CCNCC1 [Ceritinib/LDK378]
[7] = compound: C=CC(=O)Nc1ccc(C(=O)Nc2[nH]nc3c2CN(C(=O)N[C@H](CN(C)C)c2ccccc2)C3(C)C)cc1 [YKL-5-124]; test: increase in dead-cell fraction, 72 h; higher = more death;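 note: breast cancer cell lines in 384-well plates, stained with Hoechst plus LIVE/DEAD far red dye and imaged, cells above an LDR intensity threshold counted dead, Hoechst-negative corpses included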
[8] = compound: CC(=O)c1c(C)c2cnc(Nc3ccc(N4CCN(CCOCCOCCOCCNC(=O)COc5cccc6c5C(=O)N(C5CCC(=O)NC5=O)C6=O)CC4)cn3)nc2n(C2CCCC2)c1=O [BSJ-03-123]; test: as above
[9] = compound: CC(=O)c1c(C)c2cnc(Nc3ccc(N4CCNCC4)cn3)nc2n(C2CCCC2)c1=O; test: as above
[10] = compound: CCN1CCN(Cc2ccc(Nc3ncc(F)c(-c4cc(F)c5nc(C)n(C(C)C)c5c4)n3)nc2)CC1; test: as above
[11] = compound: CCOc1cc2ncc(C#N)c(Nc3ccc(OCc4ccccn4)c(Cl)c3)c2cc1NC(=O)/C=C/CN(C)C [Neratinib/HKI272]; test: as above
[12] = compound: CCc1cnn2c(NCc3ccc[n+]([O-])c3)cc(N3CCCC[C@H]3CCO)nc12; test: as above
[13] = compound: CN(C)C(=O)c1cc2cnc(Nc3ccc(N4CCNCC4)cn3)nc2n1C1CCCC1 [LEE011/Ribociclib]; test: as above
[14] = compound: CN(C)C/C=C/C(=O)Nc1ccc(C(=O)N2CCC[C@@H](Nc3ncc(Cl)c(-c4c[nH]c5ccccc45)n3)C2)cc1 [THZ531]; test: as above
[15] = compound: CN(C)C/C=C/C(=O)Nc1ccc(C(=O)Nc2cccc(Nc3ncc(Cl)c(-c4c[nH]c5ccccc45)n3)c2)cc1 [THZ1]; test: as above
[16] = compound: CN1CC[C@H](c2c(O)cc(O)c3c(=O)cc(-c4ccccc4Cl)oc23)[C@H](O)C1 [Flavopiridol]; test: as above
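Throughout, for GR50, 72 h: breast cancer and non-malignant breast epithelial cell lines, Deep Dye Drop or Dye Drop imaging, nine half-log doses, GR normalized to time-zero plates and DMSO-only controls.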

In the case of HCC202, the “GR50, 72 h” value [1] is reported as 0.0699 µM, the “GR50, 72 h” value [2] is reported as 0.0114 µM and the “GR50, 72 h” value [3] is reported as 6.48 µM. For the same cell line, the “GR50, 72 h” value [4] was 0.0167 µM, the “GR50, 72 h” value [5] was 0.475 µM and the “GR50, 72 h” value [6] was 4.75 µM. The “increase in dead-cell fraction” value ([7]; 0.001 µM) was 0.0491, the “increase in dead-cell fraction” value ([7]; 0.003162 µM) was 0.0507 and the “increase in dead-cell fraction” value ([7]; 0.01 µM) was 0.0643. The “increase in dead-cell fraction” value ([7]; 0.03162 µM) was 0.0596, the “increase in dead-cell fraction” value ([7]; 0.1 µM) was 0.0803 and the “increase in dead-cell fraction” value ([7]; 0.3162 µM) was 0.0716. For the same cell line, the “increase in dead-cell fraction” value ([7]; 1 µM) was 0.0671, the “increase in dead-cell fraction” value ([7]; 3.162 µM) was 0.081 and the “increase in dead-cell fraction” value ([7]; 10 µM) was 0.213. For the same cell line, the “increase in dead-cell fraction” value ([8]; 0.001 µM) was 0.0092, the “increase in dead-cell fraction” value ([8]; 0.003162 µM) was 0.0099 and the “increase in dead-cell fraction” value ([8]; 0.01 µM) was 0.0404. For the same cell line, the “increase in dead-cell fraction” value ([8]; 0.03162 µM) was 0.0154, the “increase in dead-cell fraction” value ([8]; 0.1 µM) was 0.0009 and the “increase in dead-cell fraction” value ([8]; 0.3162 µM) was 0.0019. The “increase in dead-cell fraction” value ([8]; 1 µM) was 0.0243, the “increase in dead-cell fraction” value ([8]; 3.162 µM) was 0.0201 and the “increase in dead-cell fraction” value ([8]; 10 µM) was 0.126. The “increase in dead-cell fraction” value ([9]; 0.0003162 µM) was 0.0137, the “increase in dead-cell fraction” value ([9]; 0.001 µM) was -0.0003 and the “increase in dead-cell fraction” value ([9]; 0.003162 µM) was 0.0115. The “increase in dead-cell fraction” value ([9]; 0.01 µM) was 0.0189, the “increase in dead-cell fraction” value ([9]; 0.03162 µM) was 0.0085 and the “increase in dead-cell fraction” value ([9]; 0.1 µM) was 0.0163. The “increase in dead-cell fraction” value ([9]; 0.3162 µM) was 0.0112, the “increase in dead-cell fraction” value ([9]; 1 µM) was 0.0306 and the “increase in dead-cell fraction” value ([9]; 3.162 µM) was 0.0531. For the same cell line, the “increase in dead-cell fraction” value ([10]; 0.001 µM) was 0.0017, the “increase in dead-cell fraction” value ([10]; 0.003162 µM) was 0.0045 and the “increase in dead-cell fraction” value ([10]; 0.01 µM) was 0.0025. For the same cell line, the “increase in dead-cell fraction” value ([10]; 0.03162 µM) was 0.0166, the “increase in dead-cell fraction” value ([10]; 0.1 µM) was 0.02 and the “increase in dead-cell fraction” value ([10]; 0.3162 µM) was 0.0336. For the same cell line, the “increase in dead-cell fraction” value ([10]; 1 µM) was 0.0207, the “increase in dead-cell fraction” value ([10]; 3.162 µM) was 0.049 and the “increase in dead-cell fraction” value ([10]; 10 µM) was 0.0763. The “increase in dead-cell fraction” value ([11]; 0.0003162 µM) was -0.0093, the “increase in dead-cell fraction” value ([11]; 0.001 µM) was -0.0087 and the “increase in dead-cell fraction” value ([11]; 0.003162 µM) was 0.0183. The “increase in dead-cell fraction” value ([11]; 0.01 µM) was 0.0049, the “increase in dead-cell fraction” value ([11]; 0.03162 µM) was 0.0466 and the “increase in dead-cell fraction” value ([11]; 0.1 µM) was 0.0644. The “increase in dead-cell fraction” value ([11]; 0.3162 µM) was 0.0996, the “increase in dead-cell fraction” value ([11]; 1 µM) was 0.103 and the “increase in dead-cell fraction” value ([11]; 3.162 µM) was 0.136. The “increase in dead-cell fraction” value ([12]; 0.0001 µM) was 0.0056, the “increase in dead-cell fraction” value ([12]; 0.0003162 µM) was 0.0103 and the “increase in dead-cell fraction” value ([12]; 0.001 µM) was -0.0029. The “increase in dead-cell fraction” value ([12]; 0.003162 µM) was -0.0193, the “increase in dead-cell fraction” value ([12]; 0.01 µM) was -0.0112 and the “increase in dead-cell fraction” value ([12]; 0.03162 µM) was 0.132. The “increase in dead-cell fraction” value ([12]; 0.1 µM) was 0.106, the “increase in dead-cell fraction” value ([12]; 0.3162 µM) was 0.122 and the “increase in dead-cell fraction” value ([12]; 1 µM) was 0.126. The “increase in dead-cell fraction” value ([13]; 0.001 µM) was 0.0107, the “increase in dead-cell fraction” value ([13]; 0.003162 µM) was -0.0028 and the “increase in dead-cell fraction” value ([13]; 0.01 µM) was 0.0035. The “increase in dead-cell fraction” value ([13]; 0.03162 µM) was 0.0081, the “increase in dead-cell fraction” value ([13]; 0.1 µM) was 0.0043 and the “increase in dead-cell fraction” value ([13]; 0.3162 µM) was 0.0132. For the same cell line, the “increase in dead-cell fraction” value ([13]; 1 µM) was 0.0255, the “increase in dead-cell fraction” value ([13]; 3.162 µM) was 0.0242 and the “increase in dead-cell fraction” value ([13]; 10 µM) was 0.0292. The “increase in dead-cell fraction” value ([14]; 0.0001 µM) was -0.0053, the “increase in dead-cell fraction” value ([14]; 0.0003162 µM) was 0.002 and the “increase in dead-cell fraction” value ([14]; 0.001 µM) was -0.0003. For the same cell line, the “increase in dead-cell fraction” value ([14]; 0.003162 µM) was -0.0311, the “increase in dead-cell fraction” value ([14]; 0.01 µM) was 0.0109 and the “increase in dead-cell fraction” value ([14]; 0.03162 µM) was 0.0036. The “increase in dead-cell fraction” value ([14]; 0.1 µM) was 0.066, the “increase in dead-cell fraction” value ([14]; 0.3162 µM) was 0.128 and the “increase in dead-cell fraction” value ([14]; 1 µM) was 0.088. For the same cell line, the “increase in dead-cell fraction” value ([15]; 0.0001 µM) was 0.0041, the “increase in dead-cell fraction” value ([15]; 0.0003162 µM) was -0.0036 and the “increase in dead-cell fraction” value ([15]; 0.001 µM) was 0.0114. For the same cell line, the “increase in dead-cell fraction” value ([15]; 0.003162 µM) was 0.0077, the “increase in dead-cell fraction” value ([15]; 0.01 µM) was 0.0009 and the “increase in dead-cell fraction” value ([15]; 0.03162 µM) was 0.0391. For the same cell line, the “increase in dead-cell fraction” value ([15]; 0.1 µM) was 0.0709, the “increase in dead-cell fraction” value ([15]; 0.3162 µM) was 0.103 and the “increase in dead-cell fraction” value ([15]; 1 µM) was 0.164. The “increase in dead-cell fraction” value ([16]; 0.0001 µM) was 0.0217, the “increase in dead-cell fraction” value ([16]; 0.0003162 µM) was -0.005 and the “increase in dead-cell fraction” value ([16]; 0.001 µM) was 0.0178. For the same cell line, the “increase in dead-cell fraction” value ([16]; 0.003162 µM) was -0.0039, the “increase in dead-cell fraction” value ([16]; 0.01 µM) was -0.0121 and the “increase in dead-cell fraction” value ([16]; 0.03162 µM) was 0.0154. For the same cell line, the “increase in dead-cell fraction” value ([16]; 0.1 µM) was 0.0477, the “increase in dead-cell fraction” value ([16]; 0.3162 µM) was 0.115 and the “increase in dead-cell fraction” value ([16]; 1 µM) was 0.133.

Reference: the supplement of paper PMC9663587
